Assay results published in patent US20080039522A1, “Composition Containing a Complex Comprising a Metal Ion and a Carboxylate Ligand Having Anti-Inflammatory Activity” (Medical Therapies Limited, priority 2004, published 2008).

How the values were obtained:
Sprague-Dawley rats [1] = assay: Inhibition of carrageenan-induced paw edema, oral administration; format: in vivo, rat; conditions: oral, IndoH 10 mg kg^−1, complex 11 mg kg^−1, mean(sem)
Description: Inhibition of Carrageenan-Induced Paw Edema: Rats were orally administered (non-anaesthetized) the Test Samples or Test Compositions via oral gavage. The control cohort was dosed solely with CMC (2%) solution. […] Exp. Ther. 1965, 150, 165-171). The thickness of the paw was measured at the ventral dorsal footpad using digital calipers prior to dosing and at 3 and 5 h after carrageenan injection. The change in the measured parameter (ΔP) for thickness of paw (Δmm) at n=3- and 5-hours after carrageenan injection is given by: ΔP=Pt=n-Pt=0 (I) The percent inhibition (% inhibition) at 3- or 5-hours in the measured parameter (P) due to the treatment is given as the difference between the % increase in the value of P in the control group and the treatment group at n=3- or 5-hours, with the % increase in the value of P given by: […]

[2] = EPR spectroscopic determination of Cu(II) monomer / dissociation of the complex in formulations; format: physicochemical; conditions: percentage of the total amount of Cu in the composition; X-band EPR, 4 K
Description: The synthesis of [Cu2(Indo)4(OH2)2] may result in a product containing a small amount of monomer (typically 5% or less), and this monomer may or may not contain Indo Thus a composition containing [Cu2(Indo)4(OH2)2] may or may not contain a small amount of a Cu(II) monomer containing Indo.
The relative amounts of the Cu(II) monomer in samples of various compositions containing the complex [Cu2(Indo)4(OH2)2] were determined as described below. […]
EPR Spectroscopy. Low temperature (4-110 K) X-band EPR spectra of the compositions containing [Cu2(Indo)4(OH2)2] were measured at X-band frequencies (˜9.5 GHz) using a Bruker EMX EPR spectrometer equipped with a standard ER4120 X band cavity, EMX 035M NMR gaussmeter, EMX 032T field controller, EMX 081 magnet power supply, Bruker EMX 048T microwave bridge control and BVT2000 variable temperature unit and Oxford Instruments E900 continuous flow cryostat (for low temperature data collection). Low temperature X-band EPR Cu(II) spectra of samples of [Cu2(Indo)4(OH2)2] containing less than 0.47 mM Cu(II) were measured using a Bruker ESP 300 spectrometer equipped with a Hewlett Packard 5352B microwave frequency counter, Bruker ER 085C magnet power supply, Bruker ER 032 magnet field control, Bruker ER 023M signal channel and Bruker ESP 1600-1048 microwave bridge controller. […]

Sprague-Dawley rats [3] = assay: Anti-inflammatory activity (rat paw oedema) of topical creams; format: in vivo; conditions: topical emulsifying cream
Description: All rat experiments were performed as outlined in Example 7, except for the following changes. In Vivo Anti-inflammatory Activity and Gastric Toxicity. For topical administration, rats were treated with test compositions containing [Cu2(Indo)4(OH2)2] (“CuIndo”), [Zn(Indo)2(OH2)2] (“ZnIndo”), IndoH, or an equivalent Indo and Cu dose of a physical mixture of [Cu2(OAc)4(OH2)2] and IndoH thoroughly mixed in an emulsifying cream (see below). An amount of 0.2 g of the composition was applied to the right hind paw of each animal and gently massaged in for 1 minute at three-hourly intervals. Inflammation was induced at the final topical application with an injection of carrageenan (0.1 mL, 1% w/v in isotonic saline) into the plantar region of the hind paw. The composition for topical application was a composition comprising 0.5-2% w/w of Indo delivered as [Cu2(Indo)4(OH2)2] (“CuIndo”), [Zn(Indo)2(OH2)2] (“ZuIndo”), IndoH or an equivalent Indo and Cu dose of a physical mixture of [Cu2(OAc)4(OH2)2] and IndoH in an emulsifying cream, the emulsifying cream consisting of: […]

Sprague-Dawley rats [4] = assay: Small intestine ulceration after oral administration; format: in vivo, rat; conditions: rats fed, oral gavage, 24 h after dosing; IndoH 10 mg kg^−1, complexes 11 mg kg^−1; mean ± sem; listed as Sample F
Description: The rats were orally administered (non-anaesthetized) the Test Samples or Test Compositions via oral gavage. The controls were dosed with CMC (2%) solution.
The total volume of the MCT or carbopol paste compositions administered per dose in the assessment of gastrointestinal ulceration was no more than 0.5 g.

COc1ccc2c(c1)c(CC(=O)[O-])c(C)n2C(=O)c1ccc(Cl)cc1.COc1ccc2c(c1)c(CC(=O)[O-])c(C)n2C(=O)c1ccc(Cl)cc1.COc1ccc2c(c1)c(CC(=O)[O-])c(C)n2C(=O)c1ccc(Cl)cc1.COc1ccc2c(c1)c(CC(=O)[O-])c(C)n2C(=O)c1ccc(Cl)cc1.O.O.[Cu+2].[Cu+2] [[Cu2(Indo)4(OH2)2]]
percent inhibition in rat hind-paw diameter change, 3-hr (Sprague-Dawley rats [1]; 3 h post carrageenan): 30(4)% | percent inhibition in rat hind-paw diameter change, 5-hr (Sprague-Dawley rats [1]; 5 h post carrageenan): 31(3)% | Cu(II) monomer (%) [2]: ^aThe technique is not applicable to dry powders, however, solid-state [Cu2(Indo)4L2] (L = OH2) contains <1% Cu(II) monomer fraction. | Efficacy (% inhib) (Sprague-Dawley rats [3]; conc. 0.5 % equiv of Indo): 12.2 % inhib | Efficacy (% inhib) (Sprague-Dawley rats [3]; conc. 0.75 % equiv of Indo): 73 % inhib | Efficacy (% inhib) (Sprague-Dawley rats [3]; conc. 1 % equiv of Indo): 52 % inhib | Efficacy (% inhib) (Sprague-Dawley rats [3]; conc. 2 % equiv of Indo): 55.2 % inhib | Small intestine ulceration (mm^2) (Sprague-Dawley rats [4]): 61.0±34.5 mm^2
